{"source": "patent US10188693B2", "about": "“Methods for treatment of atherosclerosis” (Stealth BioTherapeutics Corp, priority 2012, dated 2019)", "type_in_all_cases": "in vivo", "key": {"[1]": {"tested_on": "Apoprotein E deficient mice", "assay": "Plasma lipoprotein cholesterol by gel electrophoresis (Spife; HDL-C, LDL-C, VLDL-C)", "settings": "for HDL-C / LDL-C / VLDL-C: plasma, Spife (electrophoresis)", "text": "(§1) Apoprotein E deficient mice (Jackson Laboratories, 600 Main Street, Bar Harbor, Me.) were used in this study. The mice were male, 7-8 weeks of age, and between 18-20 g in weight. An initial total cholesterol measurement was made on 30 mice, and the mice were grouped into two groups of 15 to match the total cholesterol measurements. Both groups were fed a “western diet” (40 kcal % butterfat, 0.15% [wt/wt] cholesterol, Harlan Teklad diet TD-88137). Starting at t=0, the control group of 15 mice received vehicle only (phosphate buffered saline at pH 7.4), while the test group of 15 mice received aromatic-cationic peptide reconstituted in phosphate buffered saline. Body weights of the mice were recorded weekly, and mortality checks were performed daily.\n(§2) The aromatic-cationic peptide D-Arg-2′6′-Dmt-Lys-Phe-NH2 (sterile lyophilized powder, reconstituted in phosphate buffered saline) was tested. For the 12-week study, test mice received a single, daily dose of the peptide, subcutaneously at 1 mg/kg. Control mice received a single daily dose of vehicle.\n(§3) Experimental Protocol/Data Collection. Blood was collected every four weeks (orbital plexis) under isoflurane anesthesia (3%) and blood lipids were determined. Plasma lipid analysis was conducted for both groups at t=0, 4, […], 8, and 12 weeks. Plasma lipid analysis using an autoanalyzer included total cholesterol (TC), triglycerides (Trigs), phospholipids (PL), free cholesterol (FC), and cholesterol ester (CE, by calculation). Gel electrophoresis was used to measure levels of high-density lipoprotein cholesterol (HDL-C), low-density lipoprotein cholesterol (LDL-C), and very low-density lipoprotein cholesterol (VLDL-C)."}, "[2]": {"tested_on": "Apoprotein E deficient mice", "assay": "Total lesion area in aortic root 300 μm across aortic valve (aortic sinus cryosections, lipid staining)", "parameters": "Area, total lesion area in aortic root / Area, total lesion area in aortic root, AVE: unit not given here", "settings": "12 weeks", "text": "as §1\nThe aromatic-cationic peptide D-Arg-2′6′-Dmt-Lys-Phe-NH2 (sterile lyophilized powder, reconstituted in phosphate buffered saline) was tested. […]\nFor the aortic sinus, the heart and approximately 5 mm of the ascending aorta was cut from the remainder of the aorta. […] The sinus was imaged at 5 step levels in the region of interest, i.e., the aortic root, for a total distance of 300 μm and the lipid-staining areas and measured (total cross sectional area) using a Nikon computerized image analysis system. The data were then computed by group and statistically analyzed."}, "[3]": {"tested_on": "Apoprotein E deficient mice", "assay": "Plasma lipid analysis using an autoanalyzer (TC, Trigs, PL, FC, CE by calculation)", "parameters": "TC, plasma / FC, plasma / CE, plasma / Trigs, plasma / PL, plasma / TC / FC / CE / Trigs / PL: unit not given here", "text": "as §1, §2, §3"}, "[4]": {"settings": "Week 0 (t=0, start of dosing), individual mouse of test group"}, "[5]": {"settings": "Week 0, group average of test group"}, "[6]": {"settings": "at 4, 8 and 12 week time points, versus vehicle"}, "[7]": {"settings": "week 4, individual test mouse (sample #16-30), listed as aromatic-cationic peptide"}, "[8]": {"settings": "week 8, individual test mouse (sample #16-30), listed as aromatic-cationic peptide"}, "[9]": {"settings": "week 12, AVE of 15 test animals"}, "[10]": {"settings": "week 12, individual test mouse (sample #16-30), listed as aromatic-cationic peptide"}}, "note": "Where “and” joins values, the source holds several entries; their conditions need not be identical. Equal entries are not always repeated. Entries after “also recorded” stand apart in the source; their conditions may differ.", "data": [{"substance": "D-Arg-2′6′-Dmt-Lys-Phe-NH2", "values": [{"measurement": "HDL-C, plasma", "setting": "[1]; [4]", "value": "19 mg/dL and 34 mg/dL and 32 mg/dL and 37 mg/dL and 35 mg/dL and 21 mg/dL and 38 mg/dL and 41 mg/dL and 6 mg/dL and 31 mg/dL and 26 mg/dL and 39 mg/dL and 22 mg/dL and 29 mg/dL and 8 mg/dL"}, {"measurement": "LDL-C, plasma", "setting": "[1]; [4]", "value": "258 mg/dL and 260 mg/dL and 307 mg/dL and 245 mg/dL and 268 mg/dL and 295 mg/dL and 304 mg/dL and 474 mg/dL and 287 mg/dL and 352 mg/dL and 380 mg/dL and 481 mg/dL and 410 mg/dL and 432 mg/dL and 773 mg/dL"}, {"measurement": "VLDL-C, plasma", "setting": "[1]; [4]", "value": "25 mg/dL (2×) and 23 mg/dL and 37 mg/dL and 20 mg/dL (2×) and 19 mg/dL and 27 mg/dL and 36 mg/dL and 15 mg/dL and 26 mg/dL and 31 mg/dL and 24 mg/dL and 28 mg/dL and 29 mg/dL"}, {"measurement": "HDL-C, plasma, AVE", "setting": "[1]; [5]", "value": 28, "unit": "mg/dL"}, {"measurement": "LDL-C, plasma, AVE", "setting": "[1]; [5]", "value": 368, "unit": "mg/dL"}, {"measurement": "VLDL-C, plasma, AVE", "setting": "[1]; [5]", "value": 26, "unit": "mg/dL"}, {"measurement": "plasma LDL-C, in words", "setting": "[1]; [6]", "value": "reduces"}, {"measurement": "plasma VLDL-C, in words", "setting": "[1]; [6]", "value": "reduces"}, {"measurement": "HDL-C", "setting": "[1]; week 4, AVE of 15 test animals", "value": 25, "unit": "mg/dL"}, {"measurement": "LDL-C", "setting": "[1]; week 4, AVE of 15 test animals", "value": 940, "unit": "mg/dL"}, {"measurement": "VLDL-C", "setting": "[1]; week 4, AVE of 15 test animals", "value": 33, "unit": "mg/dL"}, {"measurement": "HDL-C", "setting": "[1]; [7]", "value": "18 mg/dL and 20 mg/dL (3×) and 0 mg/dL and 13 mg/dL and 7 mg/dL and 23 mg/dL and 32 mg/dL (3×) and 15 mg/dL and 45 mg/dL and 44 mg/dL and 49 mg/dL"}, {"measurement": "LDL-C", "setting": "[1]; [7]", "value": "745 mg/dL and 866 mg/dL and 918 mg/dL and 1120 mg/dL and 982 mg/dL and 648 mg/dL and 893 mg/dL and 975 mg/dL and 770 mg/dL and 766 mg/dL and 966 mg/dL and 1147 mg/dL and 874 mg/dL and 1171 mg/dL and 1254 mg/dL"}, {"measurement": "VLDL-C", "setting": "[1]; [7]", "value": "35 mg/dL (2×) and 37 mg/dL (2×) and 19 mg/dL and 44 mg/dL (2×) and 18 mg/dL and 23 mg/dL and 39 mg/dL and 41 mg/dL and 28 mg/dL and 31 mg/dL and 30 mg/dL and 32 mg/dL"}, {"measurement": "HDL-C", "setting": "[1]; week 8, AVE of 15 test animals", "value": 32, "unit": "mg/dL"}, {"measurement": "LDL-C", "setting": "[1]; week 8, AVE of 15 test animals", "value": 1166, "unit": "mg/dL"}, {"measurement": "VLDL-C", "setting": "[1]; week 8, AVE of 15 test animals", "value": 84, "unit": "mg/dL"}, {"measurement": "HDL-C", "setting": "[1]; [8]", "value": "42 mg/dL and 34 mg/dL and 27 mg/dL and 33 mg/dL and 19 mg/dL (2×) and 8 mg/dL and 45 mg/dL and 16 mg/dL and 32 mg/dL and 41 mg/dL (2×) and 25 mg/dL and 43 mg/dL and 57 mg/dL"}, {"measurement": "LDL-C", "setting": "[1]; [8]", "value": "1119 mg/dL and 897 mg/dL and 1392 mg/dL and 1071 mg/dL and 1415 mg/dL and 901 mg/dL and 875 mg/dL and 1378 mg/dL and 922 mg/dL and 856 mg/dL and 1317 mg/dL and 1320 mg/dL and 1025 mg/dL and 1382 mg/dL and 1621 mg/dL"}, {"measurement": "VLDL-C", "setting": "[1]; [8]", "value": "101 mg/dL and 73 mg/dL and 86 mg/dL and 79 mg/dL (2×) and 112 mg/dL and 34 mg/dL and 88 mg/dL and 69 mg/dL and 59 mg/dL and 93 mg/dL and 74 mg/dL and 80 mg/dL and 109 mg/dL and 119 mg/dL"}, {"measurement": "HDL-C", "setting": "[1]; [9]", "value": 21, "unit": "mg/dL"}, {"measurement": "LDL-C", "setting": "[1]; [9]", "value": 939, "unit": "mg/dL"}, {"measurement": "VLDL-C", "setting": "[1]; [9]", "value": 44, "unit": "mg/dL"}, {"measurement": "HDL-C", "setting": "[1]; [10]", "value": "38 mg/dL and 20 mg/dL (2×) and 10 mg/dL and 41 mg/dL and 21 mg/dL and 5 mg/dL and 31 mg/dL (2×) and 2 mg/dL (2×) and 40 mg/dL and 28 mg/dL and 1 mg/dL and 23 mg/dL"}, {"measurement": "LDL-C", "setting": "[1]; [10]", "value": "821 mg/dL and 485 mg/dL and 854 mg/dL and 852 mg/dL and 1328 mg/dL and 693 mg/dL and 611 mg/dL and 692 mg/dL and 962 mg/dL and 896 mg/dL and 1275 mg/dL and 1218 mg/dL and 505 mg/dL and 1203 mg/dL and 1688 mg/dL"}, {"measurement": "VLDL-C", "setting": "[1]; [10]", "value": "39 mg/dL and 35 mg/dL and 21 mg/dL (2×) and 43 mg/dL and 71 mg/dL and 32 mg/dL and 33 mg/dL and 26 mg/dL and 63 mg/dL and 76 mg/dL and 36 mg/dL and 30 mg/dL and 83 mg/dL and 46 mg/dL"}, {"measurement": "Area, total lesion area in aortic root, AVE", "setting": "[2]; group average, 300 μm across aortic valve, 1 mg/kg subcutaneously daily", "value": 282.72}, {"measurement": "total (mean) lesion area in aortic root, in words", "setting": "[2]; treated versus vehicle, listed as aromatic-cationic peptide", "value": "reduces; also recorded: lower"}, {"measurement": "FC, plasma", "setting": "[3]; [4]", "value": "119 and 121 and 134 (2×) and 110 and 116 and 131 and 129 and 184 and 113 and 139 and 170 and 151 and 159 and 220"}, {"measurement": "PL, plasma", "setting": "[3]; [4]", "value": "267 (3×) and 308 and 255 and 306 and 298 and 369 and 238 and 320 and 313 and 332 and 343 and 338 and 413"}, {"measurement": "TC, plasma", "setting": "[3]; [4]", "value": "302 (2×) and 318 and 376 and 323 and 335 and 369 and 550 and 309 and 409 and 431 and 552 and 457 and 490 and 808"}, {"measurement": "Trigs, plasma", "setting": "[3]; [4]", "value": "75 and 88 (3×) and 117 and 96 and 71 and 138 and 167 and 136 and 151 and 191 and 188 and 154 and 353"}, {"measurement": "CE, plasma", "setting": "[3]; Week 0 (t=0, start of dosing), individual mouse of test group, by calculation", "value": "183 and 197 and 242 and 192 and 207 and 204 and 240 and 366 and 196 and 270 and 297 and 382 and 306 and 331 and 588"}, {"measurement": "FC, plasma, AVE", "setting": "[3]; [5]", "value": 142}, {"measurement": "PL, plasma, AVE", "setting": "[3]; [5]", "value": 309}, {"measurement": "TC, plasma, AVE", "setting": "[3]; [5]", "value": 422}, {"measurement": "Trigs, plasma, AVE", "setting": "[3]; [5]", "value": 140}, {"measurement": "CE, plasma, AVE", "setting": "[3]; Week 0, group average of test group, by calculation", "value": 280}, {"measurement": "plasma cholesterol ester, in words", "setting": "[3]; [6]", "value": "reduces"}]}]}
